In US20260176289A1, “SMALL MOLECULE INHIBITORS OF KRAS PROTEINS” (Merck Sharp & Dohme LLC, priority 2022, published 2026) one finds IC50 data, which are given here for 16 compounds.

Where two headings read alike, the source gives them in different places.

The target in one assay is KRAS-G12D (Homo sapiens, UniProt P01116, G12D). The experiment in a line: SOS-catalyzed nucleotide exchange assay (Procedure A, TR-FRET), KRAS-G12D. Type of assay: biochemical. Particulars: nucleotide exchange, read-out: KRAS G12D GNE IC50. An outline of the steps:
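Signal ratio (520/495 nm, excitation 340 nm) reports Bodipy-GDP retention on biotinylated RAS after SOS-catalyzed exchange with 3 mM GTP. SOS was 40 nM, except 160 nM for G12V. Room-temperature exchange lasted 60 min (90 min for G12V), following a 60 min compound preincubation.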

The target in the next assay is KRAS-WT (Homo sapiens, UniProt P01116). The experiment in a line: SOS-catalyzed nucleotide exchange assay (Procedure A, TR-FRET), KRAS-WT. Type of assay: biochemical. The following applies: nucleotide exchange, read-out: KRAS WT GNE IC50. Summed up:
(§1)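 Inhibitors stabilizing the Bodipy-GDP state are detected as retained TR-FRET from a preformed biotinylated RAS/Tb-streptavidin complex. They are preincubated 60 min at room temperature, then human SOS and 3 mM GTP are added. G12V runs 90 min at 1.25 nM RAS/160 nM SOS. G12C (3 nM), WT (1 nM) and NRAS (1.25 nM) run 60 min with 40 nM SOS.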

In the next assay the test system is AsPC-1 cells. The experiment in a line: Cellular phospho-ERK assay, AsPC-1 cells (homozygous KRAS-G12D). Type of assay: cell-based. The following applies: read-out: AsPC1 pERK IC50. Summed up: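 Inhibition of ERK phosphorylation was determined after treating attached cells with compound for 2 h; top concentration 30 μM, serial 1:3 dilution. Each well's p-ERK:total ERK ratio, read by SureFire Ultra, was fitted with a four-parameter model for IC50.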

Another assay addresses KRAS-G12V (Homo sapiens, UniProt P01116, G12V). The experiment in a line: SOS-catalyzed nucleotide exchange assay (Procedure A, TR-FRET), KRAS-G12V. Type of assay: biochemical. Particulars: nucleotide exchange, read-out: KRAS G12V GNE IC50. An outline of the steps: as §1
Setting [1] is: Homo sapiens, ASPC1, 2 h, 2 hours compound incubation.
The mark [2] stands for this setting: Homo sapiens, ASPC1, 2 h, KRAS-G12D, 2 hours.

Sequence of KRAS-WT (P01116 with tags, fused parts or gaps isoform P01116-2): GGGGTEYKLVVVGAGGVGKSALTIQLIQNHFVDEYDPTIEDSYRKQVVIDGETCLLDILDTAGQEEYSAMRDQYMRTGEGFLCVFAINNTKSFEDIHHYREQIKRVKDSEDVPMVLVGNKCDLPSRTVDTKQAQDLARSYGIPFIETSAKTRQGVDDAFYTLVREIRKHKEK
Sequence of KRAS-G12V (P01116 with tags, fused parts or gaps isoform P01116-2 G12V): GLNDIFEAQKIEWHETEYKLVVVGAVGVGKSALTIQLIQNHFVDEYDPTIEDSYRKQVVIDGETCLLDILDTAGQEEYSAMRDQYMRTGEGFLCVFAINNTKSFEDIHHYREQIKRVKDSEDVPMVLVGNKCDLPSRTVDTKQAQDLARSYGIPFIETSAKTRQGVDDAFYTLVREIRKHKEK
Sequence of KRAS-G12D (P01116 with tags, fused parts or gaps isoform P01116-2 G12D): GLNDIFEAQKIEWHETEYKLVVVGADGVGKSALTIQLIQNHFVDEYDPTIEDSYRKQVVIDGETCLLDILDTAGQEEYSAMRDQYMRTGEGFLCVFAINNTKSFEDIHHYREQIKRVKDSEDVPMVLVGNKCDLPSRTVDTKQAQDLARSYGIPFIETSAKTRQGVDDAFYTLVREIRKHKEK

In the case of `C[C@@]1(O)COCCN(c2nc(OC[C@@]34CCCN3C[C@H](F)C4)nc3sc4c(-c5c6ccccc6cc6[nH]ncc56)nccc4c23)C1` [Ex-170, (6S)-4-(8-(1H-benzo[f]indazol-4-yl)-2-(((2R,7aS)-2-fluorotetrahydro-1H-pyrrolizin-7a(5H)-yl)methoxy)pyrido[4′,3′:4,5]thieno[2,3-d]pyrimidin-4-yl)-6-methyl-1,4-oxazepan-6-ol], the IC50 on KRAS-G12D was 32.9 nM; on KRAS-WT it was 89.6 nM; with AsPC-1 cells (setting [1]), 219 nM; at KRAS-G12V, 33.4 nM.

Take `CCC1=CC(F)(F)c2cc3[nH]ncc3c(-c3nccc4c3sc3nc(OC[C@@]56CCCN5C[C@H](F)C6)nc(N5CCOC[C@@](C)(O)C5)c34)c21` [Ex-114, (6S)-4-(8-(5-ethyl-7,7-difluoro-1,7-dihydrocyclopenta[f]inda-zol-4-yl)-2-(((2R,7aS)-2-fluorotetrahydro-1H-pyrrolizin-7a(5H)-yl)methoxy)pyrido[4′,3′:4,5]thi-eno[2,3-d]pyrimidin-4-yl)-6-methyl-1,4-oxazepan-6-ol]: the concentration for half-maximal inhibition (IC50) at KRAS-G12D was determined as 165 nM; at KRAS-WT, 380 nM; in the assay with AsPC-1 cells (setting [2]) it was 670 nM; at KRAS-G12V, 278 nM.

Regarding `C[C@@]1(O)COCCN(c2nc(OC[C@@]34CCCN3C[C@H](F)C4)nc3sc4c(-c5c(C6CC6)c(C#N)cc6[nH]ncc56)nccc4c23)C1` [Ex-51, 5-cyclopropy1-4-(2-(((2R,7aS)-2-fluorotetrahydro-1H-pyrrolizin-7a(5H)-yl)methoxy)-4-((S)-6-hydroxy-6-methyl-1,4-oxazepan-4-yl)pyrido[4′,3′:4,5]thieno [2,3-d]pyrimidin-8-yl)-1H-indazole-6-carbonitrile], the half-inhibitory concentration (IC50) turned out to be 115 nM on KRAS-G12D, 234 nM on KRAS-WT, 1410 nM in the assay on AsPC-1 cells (setting [2]) and 140 nM at KRAS-G12V.

As for `C[C@@]1(O)COCCN(c2nc(OC[C@]3(CN4CCC5(CC4)CC5)CC3(F)F)nc3sc4c(-c5c(C6(F)CC6)c(Cl)cc6[nH]ncc56)nccc4c23)C1` [Ex-233, (6S)-4-(2-(((R)-1-((6-azaspiro[2.5]octan-6-yl)methyl)-2,2-difluorocyclopropyl)methoxy)-8-(6-chloro-5-(1-fluorocyclopropyl)-1H-indazol-4-yl)pyrido[4′,3′:4,5]thieno[2,3-d]pyrimidin-4-yl)-6-methyl-1,4-oxazepan-6-ol], the IC50 on KRAS-G12D amounted to 10.1 nM; on KRAS-WT, 153 nM; with AsPC-1 cells (setting [1]), 498 nM; at KRAS-G12V it was 25.9 nM.

Regarding `COC(=O)c1cc2[nH]ncc2c(-c2nccc3c2sc2nc(OC[C@@]45CCCN4C[C@H](F)C5)nc(N4CCOC[C@@](C)(O)C4)c23)c1C1CC1` [Ex-49, Methyl 5-cyclopropyl-4-(2-(((2R,7aS)-2-fluorotetrahydro-1H-pyrrolizin-7a(5H)-yl)methoxy)-4-((S)-6-hydroxy-6-methyl-1,4-oxazepan-4-yl)pyrido[4′,3′:4,5]thieno [2,3-d]pyrimidin-8-yl)-1H-indazole-6-carboxylate], the IC50 on KRAS-G12D amounted to 39.6 nM; on KRAS-WT it was 74.1 nM; in the assay with AsPC-1 cells (setting [2]), 1930 nM; on KRAS-G12V it was 59.3 nM.

Consider `C[C@@]1(O)COCCN(c2nc(OC[C@@]34CCCN3C[C@H](F)C4)nc3sc4c(-c5cccc(Cl)c5C5CC5)nncc4c23)C1` [Ex-284], for which the IC50 at KRAS-G12D turned out to be 195 nM; at KRAS-WT, 578 nM; in the assay with AsPC-1 cells (setting [2]), 935 nM; on KRAS-G12V it was 138 nM.

As for `C[C@@]1(O)COCCN(c2nc(OC[C@]3(CN4C[C@@H]5CCCO[C@H]5C4)CC3(F)F)nc3sc4c(-c5c(C6(F)CC6)c(Cl)cc6[nH]ncc56)nccc4c23)C1` [Ex-252, (6S)-4-(8-(6-chloro-5-(1-fluorocyclopropyl)-1H-indazol-4-yl)-2-(((R)-2,2-difluoro-1-(((4aS,7aR)-hexahydropyrano[2,3-c]pyrrol-6(2H)-yl)methyl)cyclopropyl)methoxy)pyrido[4′,3′:4,5]thieno[2,3-d]pyrimidin-4-yl)-6-methyl-1,4-oxazepan-6-ol], the IC50 on KRAS-G12D is 4.96 nM; at KRAS-WT, 57.8 nM; in the assay with AsPC-1 cells (setting [1]) it was 232 nM; on KRAS-G12V, 32.2 nM.

As to `C[C@@]1(O)COCCN(c2nc(OC[C@@]34CCCN3C[C@H](F)C4)nc3sc4c(-c5c(C(F)(F)F)c(C(F)F)cc6[nH]ncc56)nccc4c23)C1` [Ex-155, (6S)-4-(8-(6-(difluoromethyl)-5-(trifluoromethyl)-1H-indazol-4-yl)-2-(((2R,7aS)-2-fluorotetrahydro-1H-pyrrolizin-7a(5H)-yl)methoxy)pyrido[4′,3′:4,5]thieno[2,3-d]pyrimidin-4-yl)-6-methyl-1,4-oxazepan-6-ol], the half-maximal inhibitory concentration (IC50) is 158 nM on KRAS-G12D, 350 nM at KRAS-WT, 927 nM in the assay on AsPC-1 cells (setting [1]) and 211 nM at KRAS-G12V.

`Cc1cc2[nH]ncc2c(-c2nccn3c2c(Cl)c2nc(OC[C@@]45CCCN4C[C@H](F)C5)nc(N4CCOC[C@@](C)(O)C4)c23)c1C1CC1` (single isomer, unassigned) [Ex-297]: the IC50 at KRAS-G12D came to 23.1 nM; on KRAS-WT, 67.8 nM; in the assay with AsPC-1 cells (setting [2]), 636 nM; at KRAS-G12V, 57.6 nM.

For `CN(C)C1CC(F)(F)C2C[C@]12COc1nc(N2CCOC[C@@](C)(O)C2)c2c(n1)sc1c(-c3c(C4(F)CC4)c(Cl)cc4[nH]ncc34)nccc12` (stereo partly shown) [Ex-271], the IC50 at KRAS-G12D stood at 42.2 nM; on KRAS-WT it was 78.8 nM; in the assay with AsPC-1 cells (KRAS-G12D, 2 hours), 244 nM; on KRAS-G12V, 37.3 nM.

Regarding `C[C@@]1(O)COCCN(c2nc(OC[C@@]34CCCN3C[C@H](F)C4)nc3sc4c(-c5cccc6c5CC5CC65)nccc4c23)C1` (single isomer, unassigned) [Ex-119], the half-maximal inhibitory concentration (IC50) was found to be 230 nM at KRAS-G12D, 662 nM on KRAS-WT, 2150 nM in the assay with AsPC-1 cells (setting [2]) and 157 nM at KRAS-G12V.

For `C[C@@]1(O)COCCN(c2nc(OC[C@@]34CCCN3C[C@H](F)C4)nc3sc4c(-c5c(-c6cc[nH]c6)c(Cl)cc6[nH]ncc56)nccc4c23)C1` [Ex-73, (6S)-4-(8-(6-chloro-5-(1H-pyrrol-3-yl)-1H-indazol-4-yl)-2-(((2R,7aS)-2-fluorotetrahydro-1H-pyrrolizin-7a(5H)-yl)methoxy)pyrido[4′,3′:4,5]thi-eno[2,3-d]pyrimidin-4-yl)-6-methyl-1,4-oxazepan-6-ol], the concentration for half-maximal inhibition (IC50) amounted to 9.67 nM on KRAS-G12D, 60.4 nM on KRAS-WT, 1060 nM with AsPC-1 cells (setting [2]) and 52.2 nM at KRAS-G12V.

Consider `C[C@@]1(O)COCCN(c2nc(OC[C@]3(CN4C[C@H]5C[C@@H]4CO5)CC3(F)F)nc3sc4c(-c5c(C6(F)CC6)c(Cl)cc6[nH]ncc56)nccc4c23)C1` [Ex-257, (6S)-4-(2-(((R)-1-(((1R,4R)-2-oxa-5-azabicyclo[2.2.1]heptan-5-yl)methyl)-2,2-difluorocyclopropyl)methoxy)-8-(6-chloro-5-(1-fluorocyclopropyl)-1H-indazol-4-yl)pyrido[4′,3′:4,5]thieno[2,3-d]pyrimidin-4-yl)-6-methyl-1,4-oxazepan-6-ol], for which the IC50 on KRAS-G12D was determined as 4.42 nM; at KRAS-WT, 42.5 nM; in the assay with AsPC-1 cells (setting [1]) it was 144 nM; on KRAS-G12V it was 28.7 nM.

For `C[C@H]1C[C@@H](COc2nc(N3CCOC[C@@](C)(O)C3)c3c(n2)sc2c(-c4c(C5CC5)c(C(F)(F)F)cc5[nH]ncc45)nccc23)N(C)C1` [Ex-82, (6S)-4-(8-(5-cyclopropyl-6-(trifluoromethyl)-1H-indazol-4-yl)-2-(((2S,4S)-1,4-dimethylpyrrolidin-2-yl)methoxy)pyrido[4′,3′:4,5]thi-eno[2,3-d]pyrimidin-4-yl)-6-methyl-1,4-oxazepan-6-ol], the IC50 at KRAS-G12D came to 31.2 nM; on KRAS-WT, 54.6 nM; in the assay with AsPC-1 cells (setting [2]) it was 592 nM; on KRAS-G12V, 32.8 nM.

For the compound `C[C@@]1(O)COCCN(c2nc(OC[C@@]34CCCN3C[C@H](F)C4)nc3sc4c(-c5cc(O)cc(Cl)c5C5CC5)nccc4c23)C1` [Ex-124, (S)-4-(8-(3-chloro-2-cyclopropyl-5-hydroxyphenyl)-2-(((2R,7aS)-2-fluorotetrahydro-1H-pyrrolizin-7a(5H)-yl)methoxy)pyri-do[4′,3′:4,5]thieno[2,3-d]pyrimidin-4-yl)-6-methyl-1,4-oxazepan-6-ol], the IC50 is 11.1 nM at KRAS-G12D, 39.4 nM on KRAS-WT, 151 nM with AsPC-1 cells (setting [2]) and 24.1 nM on KRAS-G12V.

With `COCC12CC(CN1C[C@@]1(COc3nc(N4CCOC[C@@](C)(O)C4)c4c(n3)sc3c(-c5c(C6(F)CC6)c(Cl)cc6[nH]ncc56)nccc34)CC1(F)F)C2` [Ex-258, (6S)-4-(8-(6-chloro-5-(1-fluorocyclopropyl)-1H-indazol-4-yl)-2-(((R)-2,2-difluoro-1-((1-(methoxymethyl)-2-azabicyclo[2.1.1]hexan-2-yl)methyl)cyclopropyl)metho-xy)pyrido[4′,3′:4,5]thieno[2,3-d]pyrimidin-4-yl)-6-methyl-1,4-oxazepan-6-ol], the IC50 on KRAS-G12D came to 7 nM; at KRAS-WT it was 38.8 nM; with AsPC-1 cells (setting [1]) it was 124 nM; at KRAS-G12V, 25.2 nM.

Broadly, the IC50 is the concentration at which inhibition is half-maximal.
